# Measurements taken from publication PMC5218480 (PLoS ONE, 2017).
# System: MV-4-11 cells
# Experiment: Gene expression microarray analysis (Affymetrix PrimeView) and GSEA
# Assay type: cell-based, human
# Design: RFU PODN (11730768_x_at) / Fold change /veh PODN (11730768_x_at) / RFU LINC00158 (11744669_a_at) / Fold change /veh LINC00158 (11744669_a_at) / RFU DUSP10 (11751237_a_at) / Fold change /veh DUSP10 (11751237_a_at) / RFU ID3 (11757404_x_at) / Fold change /veh ID3 (11757404_x_at) / RFU PLEKHG5 (11737974_s_at) / Fold change /veh PLEKHG5 (11737974_s_at) / RFU LRRC4B (11730491_at) / Fold change /veh LRRC4B (11730491_at) / RFU GIMAP4 (11747438_a_at) / Fold change /veh GIMAP4 (11747438_a_at) / RFU KRT8 (11758183_x_at) / Fold change /veh KRT8 (11758183_x_at) / RFU CNN1 (11734310_a_at) / Fold change /veh CNN1 (11734310_a_at) / RFU VPS37D (11726825_at) / Fold change /veh VPS37D (11726825_at) / RFU C10orf10 (11716522_x_at) / Fold change /veh C10orf10 (11716522_x_at) / RFU KIR2DL2 /// KIR2DL4 /// KIR2DL5A /// KIR2DL5B /// KIR2DS1 /// KIR2DS2 /// KIR2DS3 /// KIR2DS4 /// KIR3DL3 /// KIR3DL3 /// KIR3DS1 (11738374_at) / Fold change /veh KIR2DL2 /// KIR2DL4 /// KIR2DL5A /// KIR2DL5B /// KIR2DS1 /// KIR2DS2 /// KIR2DS3 /// KIR2DS4 /// KIR3DL3 /// KIR3DL3 /// KIR3DS1 (11738374_at) / RFU C1QL1 (11718748_at) / Fold change /veh C1QL1 (11718748_at) / RFU TMPRSS4 (11747572_a_at) / Fold change /veh TMPRSS4 (11747572_a_at) / RFU HAMP (11756126_x_at) / Fold change /veh HAMP (11756126_x_at) / RFU RNFT2 (11725882_a_at) / Fold change /veh RNFT2 (11725882_a_at) / RFU NR4A2 (11747474_a_at) / Fold change /veh NR4A2 (11747474_a_at) / RFU ABCC12 (11746883_a_at) / Fold change /veh ABCC12 (11746883_a_at) / RFU TMEM136 (11760407_x_at) / Fold change /veh TMEM136 (11760407_x_at) / RFU CLDN22 /// WWC2 (11732394_at) / Fold change /veh CLDN22 /// WWC2 (11732394_at) / RFU HLA-DPB1 (11760878_x_at) / Fold change /veh HLA-DPB1 (11760878_x_at) / RFU SPINT1 (11716480_a_at) / Fold change /veh SPINT1 (11716480_a_at) / RFU GAP43 (11754022_s_at) / Fold change /veh GAP43 (11754022_s_at) / RFU A4GNT (11735810_at) / Fold change /veh A4GNT (11735810_at) / RFU PRB3 (11715151_x_at) / Fold change /veh PRB3 (11715151_x_at) / RFU TUBB4B (11761932_at) / Fold change /veh TUBB4B (11761932_at) / RFU CAPN14 (11732068_a_at) / Fold change /veh CAPN14 (11732068_a_at) / RFU TMCC2 (11721928_a_at) / Fold change /veh TMCC2 (11721928_a_at) / RFU IRGQ (11745062_a_at) / Fold change /veh IRGQ (11745062_a_at) / RFU FAM174B (11720279_a_at) / Fold change /veh FAM174B (11720279_a_at) / RFU TMPRSS4 (11748680_a_at) / Fold change /veh TMPRSS4 (11748680_a_at) / RFU FAM212B (11763350_a_at) / Fold change /veh FAM212B (11763350_a_at) / RFU PLEKHG5 (11743358_a_at) / Fold change /veh PLEKHG5 (11743358_a_at) / RFU ZSCAN30 (11745921_a_at) / Fold change /veh ZSCAN30 (11745921_a_at) / RFU CMKLR1 (11741424_a_at) / Fold change /veh CMKLR1 (11741424_a_at) / RFU LOC101060620 /// MAPK8IP1 (11723275_at) / Fold change /veh LOC101060620 /// MAPK8IP1 (11723275_at) / RFU SPTSSB (11747773_x_at) / Fold change /veh SPTSSB (11747773_x_at) / RFU PRSS12 (11739890_at) / Fold change /veh PRSS12 (11739890_at) / RFU BIN1 (11741810_x_at) / Fold change /veh BIN1 (11741810_x_at) / RFU WNT11 (11732464_a_at) / Fold change /veh WNT11 (11732464_a_at) / RFU C10orf10 (11716521_a_at) / Fold change /veh C10orf10 (11716521_a_at) / RFU C5orf56 (11738089_at) / Fold change /veh C5orf56 (11738089_at) / RFU CYB561 (11721691_x_at) / Fold change /veh CYB561 (11721691_x_at) / RFU ANKRD19P (11752326_a_at) / Fold change /veh ANKRD19P (11752326_a_at) / RFU OR2T12 /// OR2T33 /// OR2T8 (11738714_s_at) / Fold change /veh OR2T12 /// OR2T33 /// OR2T8 (11738714_s_at) / RFU VCAN (11748164_a_at) / Fold change /veh VCAN (11748164_a_at) / RFU JSRP1 (11732532_at) / Fold change /veh JSRP1 (11732532_at) / RFU KRTAP10-11 (11738290_x_at) / Fold change /veh KRTAP10-11 (11738290_x_at) / RFU MYO3A (11730013_a_at) / Fold change /veh MYO3A (11730013_a_at) / RFU EBF3 (11725865_a_at) / Fold change /veh EBF3 (11725865_a_at) / RFU CAMK2N1 (11719241_x_at) / Fold change /veh CAMK2N1 (11719241_x_at) / RFU C5orf56 (11738088_a_at) / Fold change /veh C5orf56 (11738088_a_at) / RFU OLFML3 (11715873_a_at) / Fold change /veh OLFML3 (11715873_a_at) / RFU LOC100653217 /// NTM (11731650_a_at) / Fold change /veh LOC100653217 /// NTM (11731650_a_at) / RFU MAPK11 (11762145_a_at) / Fold change /veh MAPK11 (11762145_a_at) / RFU FIZ1 (11724087_x_at) / Fold change /veh FIZ1 (11724087_x_at) / RFU OASL (11726364_x_at) / Fold change /veh OASL (11726364_x_at) / RFU SOX15 (11748057_x_at) / Fold change /veh SOX15 (11748057_x_at) / RFU CD79A (11719716_a_at) / Fold change /veh CD79A (11719716_a_at) / RFU HIST1H1D (11736915_at) / Fold change /veh HIST1H1D (11736915_at) / RFU CASKIN2 (11723855_a_at) / Fold change /veh CASKIN2 (11723855_a_at) / RFU LOC730098 (11760151_x_at) / Fold change /veh LOC730098 (11760151_x_at) / RFU OR4N2 (11742367_at) / Fold change /veh OR4N2 (11742367_at) / RFU PRRT2 (11749266_a_at) / Fold change /veh PRRT2 (11749266_a_at) / RFU SNX32 (11753110_a_at) / Fold change /veh SNX32 (11753110_a_at) / RFU CDHR5 (11726645_a_at) / Fold change /veh CDHR5 (11726645_a_at) / RFU RCAN1 (11760418_a_at) / Fold change /veh RCAN1 (11760418_a_at) / RFU FAM167A (11723789_a_at) / Fold change /veh FAM167A (11723789_a_at) / RFU FAM26E (11764081_at) / Fold change /veh FAM26E (11764081_at) / RFU ISYNA1 (11749810_s_at) / Fold change /veh ISYNA1 (11749810_s_at) / RFU ACY1 (11761880_at) / Fold change /veh ACY1 (11761880_at) / RFU 11764098_at / Fold change /veh 11764098_at / RFU SAMD14 (11745864_x_at) / Fold change /veh SAMD14 (11745864_x_at) / RFU NPB (11741838_a_at) / Fold change /veh NPB (11741838_a_at) / RFU TMPRSS6 (11731388_a_at) / Fold change /veh TMPRSS6 (11731388_a_at) / RFU KRTAP10-2 (11738614_at) / Fold change /veh KRTAP10-2 (11738614_at) / RFU ARHGAP8 /// PRR5-ARHGAP8 (11727945_x_at) / Fold change /veh ARHGAP8 /// PRR5-ARHGAP8 (11727945_x_at) / RFU KRTAP5-7 /// NADSYN1 (11734609_at) / Fold change /veh KRTAP5-7 /// NADSYN1 (11734609_at) / RFU RASL12 (11751679_a_at) / Fold change /veh RASL12 (11751679_a_at) / RFU CDKN2B (11736163_a_at) / Fold change /veh CDKN2B (11736163_a_at) / RFU PRF1 (11729649_at) / Fold change /veh PRF1 (11729649_at) / RFU, ZNF638 /// ZNF638-IT1 / Fold change vs veh, ZNF638 /// ZNF638-IT1 / RFU, PANK3 / Fold change vs veh, PANK3 / RFU, SH3YL1 / Fold change vs veh, SH3YL1 / RFU, ZEB2 / Fold change vs veh, ZEB2 / RFU, NRIP1 / Fold change vs veh, NRIP1 / RFU, PTTG1IP / Fold change vs veh, PTTG1IP / RFU, CAPN2 / Fold change vs veh, CAPN2 / RFU, MED14 / Fold change vs veh, MED14 / RFU, SNORA58 / Fold change vs veh, SNORA58 / RFU, C1orf63 / Fold change vs veh, C1orf63 / RFU, LRRFIP1 / Fold change vs veh, LRRFIP1 / RFU, NDUFAF7 / Fold change vs veh, NDUFAF7 / RFU, SLC12A2 / Fold change vs veh, SLC12A2 / RFU, IBTK / Fold change vs veh, IBTK / RFU, ESF1 / Fold change vs veh, ESF1 / Fold change vs veh, TMEM50B / RFU, TAOK1 / Fold change vs veh, TAOK1 / RFU, ACBD3 / Fold change vs veh, ACBD3 / RFU, TMA16 / Fold change vs veh, TMA16 / RFU, RWDD3 / Fold change vs veh, RWDD3 / RFU, BCAT1 / Fold change vs veh, BCAT1 / RFU, EDEM3 / Fold change vs veh, EDEM3 / RFU, TMEM33 / Fold change vs veh, TMEM33 / RFU, WDR75 / Fold change vs veh, WDR75 / RFU, AHCTF1 / Fold change vs veh, AHCTF1 / RFU, TFRC / Fold change vs veh, TFRC / RFU, ZDHHC17 / Fold change vs veh, ZDHHC17 / RFU, NOM1 / Fold change vs veh, NOM1 / RFU, ARL8B / Fold change vs veh, ARL8B / RFU, ZBTB11 / Fold change vs veh, ZBTB11 / RFU, TAMM41 / Fold change vs veh, TAMM41 / RFU, KIAA1704 /// LOC100996395 / Fold change vs veh, KIAA1704 /// LOC100996395 / RFU, ING1 / Fold change vs veh, ING1 / RFU, TRMT61B / Fold change vs veh, TRMT61B / RFU, FUBP3 / Fold change vs veh, FUBP3 / RFU, TP53 / Fold change vs veh, TP53 / RFU, TNKS2 / Fold change vs veh, TNKS2 / RFU, ZFP14 / Fold change vs veh, ZFP14 / RFU, ACTR2 / Fold change vs veh, ACTR2 / RFU, PPP3R1 / Fold change vs veh, PPP3R1 / RFU, PIK3R1 / Fold change vs veh, PIK3R1 / RFU, HNRNPA1 / Fold change vs veh, HNRNPA1 / RFU, RNF170 / Fold change vs veh, RNF170 / RFU, ZNF28 / Fold change vs veh, ZNF28 / RFU, RNGTT / Fold change vs veh, RNGTT / RFU, OGT / Fold change vs veh, OGT / RFU, BRD1 / Fold change vs veh, BRD1 / RFU, MARS / Fold change vs veh, MARS / RFU, ZNF655 / Fold change vs veh, ZNF655 / RFU, FAHD1 / Fold change vs veh, FAHD1 / RFU, BDP1 / Fold change vs veh, BDP1 / RFU, LRRCC1 / Fold change vs veh, LRRCC1 / RFU, ARID1A / Fold change vs veh, ARID1A / RFU, ZNF146 / Fold change vs veh, ZNF146 / RFU, ZNF330 / Fold change vs veh, ZNF330 / RFU, GPN3 / Fold change vs veh, GPN3 / RFU, C9orf123 / Fold change vs veh, C9orf123 / RFU, N4BP2L2 / Fold change vs veh, N4BP2L2 / RFU, ARFIP1 / Fold change vs veh, ARFIP1 / RFU, FAM179B / Fold change vs veh, FAM179B / RFU, BCL10 / Fold change vs veh, BCL10 / RFU, UHRF1BP1L / Fold change vs veh, UHRF1BP1L / RFU, BET1 / Fold change vs veh, BET1 / RFU, CNOT2 / Fold change vs veh, CNOT2 / RFU, ZNF268 / Fold change vs veh, ZNF268 / Fold change vs veh, ZNF507 / RFU, DGCR2 / Fold change vs veh, DGCR2 / RFU, WDSUB1 / Fold change vs veh, WDSUB1 / Fold change vs veh, HSP90B1 /// MIR3652 / RFU, ADSS / Fold change vs veh, ADSS / RFU, GK / Fold change vs veh, GK / RFU, ZNF148 / Fold change vs veh, ZNF148 / RFU, TAF9 / Fold change vs veh, TAF9 / RFU, SLC1A5 / Fold change vs veh, SLC1A5 / RFU, SLMO2 / Fold change vs veh, SLMO2 / RFU, ABCC4 / Fold change vs veh, ABCC4 / RFU, LOC101060439 /// RAP1B / Fold change vs veh, LOC101060439 /// RAP1B / RFU, RFX7 / Fold change vs veh, RFX7 / RFU, GTPBP10 / Fold change vs veh, GTPBP10 / RFU, CNEP1R1 / Fold change vs veh, CNEP1R1 / RFU, BIVM-ERCC5 /// ERCC5 / Fold change vs veh, BIVM-ERCC5 /// ERCC5 / RFU, ILF3 / Fold change vs veh, ILF3 / RFU 11762660_at / Fold change /veh 11762660_at / RFU VCAN (11757783_s_at) / Fold change /veh VCAN (11757783_s_at) / RFU DDX43 (11728927_at) / Fold change /veh DDX43 (11728927_at) / RFU KRT8 (11758188_x_at) / Fold change /veh KRT8 (11758188_x_at) / RFU NKD1 (11759106_at) / Fold change /veh NKD1 (11759106_at) / RFU SRD5A1 (11742802_a_at) / Fold change /veh SRD5A1 (11742802_a_at) / RFU TPSAB1 /// TPSB2 (11721975_s_at) / Fold change /veh TPSAB1 /// TPSB2 (11721975_s_at) / RFU GSTM3 (11746129_a_at) / Fold change /veh GSTM3 (11746129_a_at) / RFU IL23R (11737362_x_at) / Fold change /veh IL23R (11737362_x_at) / RFU TMEM51 (11727254_a_at) / Fold change /veh TMEM51 (11727254_a_at) / RFU PIWIL2 (11732686_x_at) / Fold change /veh PIWIL2 (11732686_x_at) / RFU ORM1 (11744905_x_at) / Fold change /veh ORM1 (11744905_x_at) / RFU CCDC152 (11743942_at) / Fold change /veh CCDC152 (11743942_at) / RFU ECM1 (11717891_a_at) / Fold change /veh ECM1 (11717891_a_at) / RFU IL23R (11748794_a_at) / Fold change /veh IL23R (11748794_a_at) / RFU TNFAIP8L3 (11732012_x_at) / Fold change /veh TNFAIP8L3 (11732012_x_at) / RFU MBOAT4 (11741988_at) / Fold change /veh MBOAT4 (11741988_at) / RFU 11764193_at / Fold change /veh 11764193_at / RFU TMEM53 (11763286_at) / Fold change /veh TMEM53 (11763286_at) / RFU MAGEB2 (11727129_at) / Fold change /veh MAGEB2 (11727129_at) / RFU TMEM200A (11744735_a_at) / Fold change /veh TMEM200A (11744735_a_at) / RFU CCDC152 (11751479_a_at) / Fold change /veh CCDC152 (11751479_a_at) / RFU FAM211A (11726209_a_at) / Fold change /veh FAM211A (11726209_a_at) / RFU RGS16 (11746705_a_at) / Fold change /veh RGS16 (11746705_a_at) / RFU VCAN (11755009_s_at) / Fold change /veh VCAN (11755009_s_at) / RFU RHOB (11743442_s_at) / Fold change /veh RHOB (11743442_s_at) / RFU RGS16 (11720943_a_at) / Fold change /veh RGS16 (11720943_a_at) / RFU RGS16 (11720944_at) / Fold change /veh RGS16 (11720944_at) / RFU, VPS4B / Fold change vs veh, VPS4B / RFU, CREB1 / Fold change vs veh, CREB1 / RFU, DNAJC13 / Fold change vs veh, DNAJC13 / RFU, GNAQ / Fold change vs veh, GNAQ / RFU, CDK5R1 / Fold change vs veh, CDK5R1 / RFU, ZRANB3 / Fold change vs veh, ZRANB3 / RFU, CUL4A / Fold change vs veh, CUL4A / RFU, CCNY / Fold change vs veh, CCNY / RFU, UFL1 / Fold change vs veh, UFL1 / RFU, COG3 / Fold change vs veh, COG3 / RFU, DIAPH2 / Fold change vs veh, DIAPH2 / RFU, SKA2 / Fold change vs veh, SKA2 / RFU, AFF3 / Fold change vs veh, AFF3 / RFU, LMF1 / Fold change vs veh, LMF1 / RFU, IPO11 / Fold change vs veh, IPO11 / RFU, DFFB / Fold change vs veh, DFFB / RFU, FOXP1 / Fold change vs veh, FOXP1 / RFU, CARD8 / Fold change vs veh, CARD8 / RFU, STRN3 / Fold change vs veh, STRN3 / RFU, ADK / Fold change vs veh, ADK / RFU, RASSF2 / Fold change vs veh, RASSF2 / RFU, WIPF1 / Fold change vs veh, WIPF1 / RFU, LARP1B / Fold change vs veh, LARP1B / RFU, RASA1 / Fold change vs veh, RASA1 / RFU, RB1 / Fold change vs veh, RB1 / RFU, PPFIA1 / Fold change vs veh, PPFIA1 / RFU, MAT2A / Fold change vs veh, MAT2A / RFU, CCT5 / Fold change vs veh, CCT5 / RFU, WDR92 / Fold change vs veh, WDR92 / RFU, CUX1 / Fold change vs veh, CUX1 / RFU, TTC7A / Fold change vs veh, TTC7A / RFU, TMEM135 / Fold change vs veh, TMEM135 / RFU, DEPTOR / Fold change vs veh, DEPTOR / RFU, CPM / Fold change vs veh, CPM / RFU, DNAJB6 / Fold change vs veh, DNAJB6 / RFU, CACNA2D3 / Fold change vs veh, CACNA2D3 / RFU, DTX4 / Fold change vs veh, DTX4 / RFU, TFCP2 / Fold change vs veh, TFCP2 / RFU, GMCL1 /// GMCL1P1 / Fold change vs veh, GMCL1 /// GMCL1P1 / RFU, AEBP2 / Fold change vs veh, AEBP2 / RFU, SNHG1 /// SNORD22 /// SNORD25 /// SNORD26 /// SNORD27 /// SNORD28 /// SNORD29 /// SNORD31 / Fold change vs veh, SNHG1 /// SNORD22 /// SNORD25 /// SNORD26 /// SNORD27 /// SNORD28 /// SNORD29 /// SNORD31 / Fold change (Aza/veh), C12orf56 (ProbeSet 11735607_a_at) / Fold change (ACY-1035/veh), C12orf56 (ProbeSet 11735607_a_at) / Fold change (Aza/veh), FGFR1OP (ProbeSet 11751329_s_at) / Fold change (ACY-1035/veh), FGFR1OP (ProbeSet 11751329_s_at) / Fold change (Aza/veh), VPS36 (ProbeSet 11739960_a_at) / Fold change (ACY-1035/veh), VPS36 (ProbeSet 11739960_a_at) / RFU SYPL1 (11715823_x_at) / Fold change /veh SYPL1 (11715823_x_at) / RFU IGFBP7 (11715501_s_at) / Fold change /veh IGFBP7 (11715501_s_at) / RFU REEP3 (11722064_at) / Fold change /veh REEP3 (11722064_at) / RFU IGLL1 (11728026_x_at) / Fold change /veh IGLL1 (11728026_x_at): dose or concentration left out as unconfirmed
# Settings: ProbeSet 11719817_x_at; LIST B
smiles,measurement,value
Nc1ncn([C@@H]2O[C@H](CO)[C@@H](O)[C@H]2O)c(=O)n1 [azacitidine],"Fold change vs veh, BET1",0.89
